The results in this text go back to patent publication US6469005B1, “Propargylether derivatives” (priority 1999, dated 2002).

Data set [1] deals with Plasmopara viticola. Description: D-1: Action against Plasmopara viticola on vines (residual-protective and residual-curative action). Format: in vivo. As to conditions: vine seedlings, spray mixture 0.02% active ingredient; protective (infected after 24 hours) or curative (sprayed 24 hours after infection); evaluated after 6 days. Here is the method: D-1: Action Against Plasmopara viticola on Vines a) Residual-Protective Action
Vine seedlings are sprayed at the 4- to 5-leaf stage with a spray mixture (0.02% active ingredient) prepared from a wettable powder formulation of the test compound. After 24 hours, the treated plants are infected with a sporangia suspension of the fungus. Fungus infestation is evaluated after incubation for 6 days at 95-100% relative humidity and +20° C. […]
b) Residual-curative Action
Vine seedlings are infected at the 4- to 5-leaf stage with a sporangia suspension of the fungus. After incubation for 24 hours in a humidity chamber at 95-100% relative humidity and +20° C., the infected plants are dried and sprayed with a spray mixture (0.02% active ingredient) prepared from a wettable powder formulation of the test compound. After the spray coating has dried, the treated plants are placed in the humidity chamber again.
Fungus infestation is evaluated 6 days after infection.

Data set [2] relates to Phytophthora. The data set can be described thus: D-2: Action against Phytophthora on tomato plants (residual-protective and systemic action). In kind it is in vivo. The following applies: 0.02% active ingredient, sprayed (infected after 48 hours, evaluated after 5 days) or watered, systemic (infected after 96 hours, evaluated after 4 days). The method, then: D-2: Action Against Phytophthora on Tomato Plants
(§1) a) Residual-protective Action
After a cultivation period of 3 weeks, tomato plants are sprayed with a spray mixture (0.02% active ingredient) prepared from a wettable powder formulation of the test compound. After 48 hours, the treated plants are infected with a sporangia suspension of the fungus. Fungus infestation is evaluated after incubation of the infected plants for 5 days at 90-100% relative humidity and +20° C.
After a cultivation period of 3 weeks, tomato plants are watered with a spray mixture (0.02% active ingredient based on the volume of the soil) prepared from a wettable powder formulation of the test compound. […] After 96 hours, the treated plants are infected with a sporangia suspension of the fungus. Fungus infestation is evaluated after incubation of the infected plants for 4 days at 90-100% relative humidity and +20° C.

For data set [3], the system named is Phytophthora. The data set can be described thus: D-3: Action against Phytophthora on potato plants (residual-protective and systemic action). The following applies: potato plants (Bintje variety), 0.02% active ingredient; sprayed or watered (systemic), infected after 48 hours, evaluated after 4 days. Format: in vivo. Here is the method:
ID-3: Action Against Phytophthora on Potato Plants
as §1
2-3 week old potato plants (Bintje variety) are sprayed with a spray mixture (0.02% active ingredient) prepared from a wettable powder formulation of the test compound. After 48 hours, the treated plants are infected with a sporangia suspension of the fungus. Fungus infestation is evaluated after incubation of the infected plants for 4 days at 90-100% relative humidity and +20° C.
2-3 week old potato plants (Bintje variety) are watered with a spray mixture (0.02% active ingredient based on the volume of the soil) prepared from a wettable powder formulation of the test compound. […] After 48 hours, the treated plants are infected with a sporangia suspension of the fungus. Fungus infestation is evaluated after incubation of the infected plants for 4 days at 90-100% relative humidity and +20° C. Fungal infestation is effectively controlled with compounds of Tables 1 to 47.

Compound `CCC#CCOc1ccc(CCNC(=O)C(=O)c2ccc(Cl)c(Cl)c2)cc1OC` [Compound E2.02, 2-(3,4-Dichloro-phenyl)-N-[2-(3-methoxy-4-pent-2-ynyloxy-phenyl)-ethyl]-2-oxo-acetamide] came in with a melting point of 94 to 95 °C. The “fungal infestation (Plasmopara viticola on vines)” value in data set [1] is given as “completely inhibit fungal infestation”. Also, in data set [2], the “fungal infestation (Phytophthora on tomato plants)” value was “completely inhibit fungal infestation”.

As to `CCC#CCOc1ccc(CCNC(=O)C(O)c2ccc(Cl)c(Cl)c2)cc1OC` (stereo not drawn) [Compound E1.02, 2-(3,4-Dichloro-phenyl)-2-hydroxy-N-[2-(3-methoxy-4-pent-2-ynyloxy-phenyl)-ethyl]-acetamide], in data set [3], the “fungal infestation (Phytophthora on potato plants)” value is listed as “completely inhibit fungal infestation”. The “fungal infestation (Plasmopara viticola on vines)” value in data set [1] is listed as “completely inhibit fungal infestation”. Moreover, the “fungal infestation (Phytophthora on tomato plants)” value in data set [2] is given as “completely inhibit fungal infestation”.

Consider `C#CCOc1ccc(CCNC(=O)C(=O)c2ccc(-c3ccc(Cl)cc3)cc2)cc1OC`, for which the melting point fell in the range of 122 to 124 °C.

Take `C#CCOc1ccc(CCNC(=O)C(O)c2ccc(Cl)c(Cl)c2)cc1OC` (stereo not drawn) [Compound E1.01, 2-(3,4-Dichloro-phenyl)-2-hydroxy-N-[2-(3-methoxy-4-prop-2-ynyloxy-phenyl)-ethyl]-acetamide]: the “fungal infestation (Phytophthora on potato plants)” value in data set [3] is listed as “completely inhibit fungal infestation”. The “fungal infestation (Plasmopara viticola on vines)” value in data set [1] is “completely inhibit fungal infestation”. In data set [2], the “fungal infestation (Phytophthora on tomato plants)” value is “completely inhibit fungal infestation”.

Take `C#CCOc1ccc(CCNC(=O)C(OC(=O)C(=O)OC)c2ccc(Br)cc2)cc1OC` (stereo not drawn) [Compound E4.01, 2-(4-Bromo-phenyl)-2-methyloxalyloxy-N-[2-(3-methoxy-4-prop-2-ynyloxy-phenyl)-ethyl]-acetamide]: in data set [1], the “fungal infestation (Plasmopara viticola on vines)” value is recorded as “completely inhibit fungal infestation”. For the same compound, the “fungal infestation (Phytophthora on tomato plants)” value in data set [2] is given as “completely inhibit fungal infestation”.

For `COc1cc(CCNC(=O)[C@H](NC(=O)OC(C)(C)C)C(C)C)ccc1OCC#Cc1ccc(Cl)cc1` (stereo in doubt), the melting point is 141 to 142 °C.

On to `C#CCOc1ccc(CCNC(=O)C(O)c2ccc(-c3ccc(C(F)(F)F)cc3)cc2)cc1OC` (stereo not drawn) [Compound E3.03, 2-(4′-Trifluoro-biphenyl-4-yl)-2-hydroxy-N-[2-(3-methoxy-4-prop-2-ynyloxy-phenyl)-ethyl]-acetamide], for which the “fungal infestation (Plasmopara viticola on vines)” value in data set [1] was “completely inhibit fungal infestation”. For the same compound, in data set [2], the “fungal infestation (Phytophthora on tomato plants)” value is listed as “completely inhibit fungal infestation”.

By melting point is commonly meant the temperature of the solid-liquid transition.
